Laboratory results reported in ChEMBL document CHEMBL5543174, “A Nonbactericidal Anionic Antimicrobial Peptide Provides Prophylactic and Therapeutic Efficacies against Bacterial Infections in Mice by Immunomodulatory-Antithrombotic Duality” (J Med Chem, 2024).
Activity calls are given as the source filed them. The rule behind the calls is not given here.

Experiments:
Staphylococcus aureus [1] = assay: Antibacterial activity against Staphylococcus aureus ATCC 25923 infected in C57BL/6 mouse assessed as reduction in TNF-alpha level in serum at 10 mg/kg,ip administrated 5 hrs after bacterial infection measured after 24 hrs by ELISA; assay type: functional, organism-based; details: time 19.0 hrs
Mus musculus [2] = assay: Anticoagulation activity in mouse infected with Carbapenem-resistant Escherichia coli assessed as increase in plasma AT-III expression at 10 mg/kg,ip pre-administrated 5 hrs before bacterial infection measured after 24 hrs by ELISA; assay type: functional, organism-based; details: time 29.0 hrs
Peritoneal macrophage [3] = assay: Immunomodulatory activity in mouse Peritoneal macrophage assessed as decrease in LPS-induced IL-1beta production at 25 to 100 ug/ml incubated for 6 hrs by ELISA; assay type: functional, cell-based; details: dose 25-100 µg/ml
[4] = tested on: Peritoneal macrophage cell; assay: Induction of chemotaxis in mouse Peritoneal macrophage assessed as increase in macrophage migration at 25 to 100 ug/ml incubated for 8 hrs by crystal violet staining based direct transwell assay; assay type: functional, cell-based; details: dose 25-100 µg/ml
Escherichia coli [5] = assay: Antibacterial activity against Escherichia coli ATCC 25922 infected in C57BL/6 mouse assessed as reduction in IL-1beta level in peritoneal fluid at 10 mg/kg,ip pre-administrated 5 hrs before bacterial infection measured after 24 hrs by ELISA; assay type: functional, organism-based; details: time 29.0 hrs
Peritoneal macrophage [6] = assay: Immunoregulatory activity in mouse Peritoneal macrophage assessed as upregulation of p65 phosphorylation incubated for 1 hr by Western blotting analysis; assay type: functional, cell-based
Klebsiella pneumoniae = assay: Antimicrobial activity against Klebsiella pneumoniae ATCC 27736 assessed as inhibition of microbial growth at <= 200 ug/ml incubated for 18 hrs by micro-broth dilution method; assay type: functional, organism-based; details: dose <= 200.0 µg/ml
[7] = tested on: Peritoneal macrophage cell; assay: Induction of chemotaxis in mouse Peritoneal macrophage assessed as upregulation of CXCL1 production at 100 ug/ml preincubated with KN-62 followed by compound addition by ELISA; assay type: functional, cell-based; details: dose 100.0 µg/ml
Staphylococcus aureus [8] = assay: Antimicrobial activity against Methicillin-resistant Staphylococcus aureus assessed as inhibition of microbial growth at <= 200 ug/ml incubated for 18 hrs by micro-broth dilution method; assay type: functional, organism-based; details: dose <= 200.0 µg/ml
Staphylococcus aureus [9] = assay: Antibacterial activity against Methicillin-resistant Staphylococcus aureus infected in C57BL/6 mouse assessed as increase in survival rate at 10 mg/kg,ip pre-administrated 5 hrs before bacterial infection measured after 7 days; assay type: functional, organism-based; details: time 7.0 day
[10] = tested on: Peritoneal macrophage cell; assay: Induction of chemotaxis in mouse Peritoneal macrophage assessed as increase in macrophage migration at 100 ug/ml preincubated with PTX for 30 mins followed by compound addition measured after 8 hrs by crystal violet staining based indirect transwell assay; assay type: functional, cell-based; details: dose 100.0 µg/ml
Peritoneal macrophage [11] = assay: Induction of chemotaxis in mouse Peritoneal macrophage assessed as upregulation of CXCL1 expression incubated for 6 hrs by ELISA; assay type: functional, cell-based
Staphylococcus aureus [12] = assay: Antibacterial activity against Staphylococcus aureus ATCC 25923 infected in C57BL/6 mouse assessed as reduction in inflammatory injury in lung at 10 mg/kg,ip pre-administrated 5 hrs before bacterial infection measured after 24 hrs by hematoxylin and eosin staining based analysis; assay type: functional, organism-based; details: time 29.0 hrs
[13] = tested on: Peritoneal macrophage cell; assay: Induction of chemotaxis in mouse Peritoneal macrophage assessed as upregulation of MCP-1 production at 100 ug/ml preincubated with WRW4 followed by compound addition by ELISA; assay type: functional, cell-based; details: dose 100.0 µg/ml
Candida albicans = assay: Antimicrobial activity against Candida albicans ATCC 2002 assessed as reduction in metabolic activity at < 200 ug/ml incubated for 1 to 4 hrs by CCK-8 assay; assay type: functional, organism-based; details: dose < 200.0 µg/ml, time 1-4 hrs
Lymphocyte = assay: Immunomodulatory activity in mouse spleen derived lymphocyte assessed as increase in lymphocyte proliferation at < 200 ug/ml incubated for 24 hrs by CCK-8 assay; assay type: functional, cell-based; details: dose < 200.0 µg/ml
Mus musculus [14] = assay: Immunomodulatory activity in clodronate liposome immunosuppressed C57BL/6 mouse with monocyte depletion model assessed as increase in number of monocyte in peritoneal lavage at 10 mg/kg,ip administration measured after 5 hrs by flow cytometry; assay type: functional, organism-based
Escherichia coli [15] = assay: Antibacterial activity against Carbapenem-resistant Escherichia coli infected in C57BL/6 mouse assessed as reduction in bacterial load at 10 mg/kg,ip pre-administrated 5 hrs before bacterial infection; assay type: functional, organism-based
Staphylococcus aureus [16] = assay: Antimicrobial activity against Methicillin-resistant Staphylococcus aureus assessed as reduction in microbial colony forming unit at 200 ug/ml incubated for 1 to 4 hrs by time-kill kinetics based analysis; assay type: functional, organism-based; details: dose 200.0 µg/ml, time 1-4 hrs
Neutrophil [17] = assay: Induction of phagocytosis in mouse bone marrow derived neutrophil cultured with CFSE-labeled Methicillin-resistant Staphylococcus aureus incubated for 1.5 hrs followed by bacterial exposure for 1 hr by flow cytometry; assay type: functional, cell-based; details: time 2.5 hrs
[18] = tested on: Staphylococcus epidermidis; assay: Antimicrobial activity against Staphylococcus epidermidis ATCC 12228 assessed as inhibition of microbial growth at <= 200 ug/ml incubated for 18 hrs by micro-broth dilution method; assay type: functional, organism-based; details: dose <= 200.0 µg/ml
Staphylococcus aureus [19] = assay: Antibacterial activity against Staphylococcus aureus ATCC 25923 infected in C57BL/6 mouse assessed as reduction in IL-6 level in peritoneal fluid at 10 mg/kg,ip administrated 5 hrs after bacterial infection measured after 24 hrs by ELISA; assay type: functional, organism-based; details: time 19.0 hrs
Escherichia coli [20] = assay: Antibacterial activity against Escherichia coli ATCC 25922 infected in C57BL/6 mouse assessed as reduction in IL-6 level in peritoneal fluid at 10 mg/kg,ip pre-administrated 5 hrs before bacterial infection measured after 24 hrs by ELISA; assay type: functional, organism-based; details: time 29.0 hrs
Peritoneal macrophage [21] = assay: Induction of chemotaxis in mouse Peritoneal macrophage assessed as upregulation of MCP-1 expression incubated for 6 hrs by ELISA; assay type: functional, cell-based
Peritoneal macrophage [22] = assay: Induction of chemotaxis in mouse Peritoneal macrophage assessed as upregulation of CXCL2 gene expression incubated for 6 hrs by qPCR analysis; assay type: functional, cell-based
Escherichia coli [23] = assay: Antimicrobial activity against Carbapenem-resistant Escherichia coli assessed as inhibition of microbial growth at <= 200 ug/ml incubated for 18 hrs by micro-broth dilution method; assay type: functional, organism-based; details: dose <= 200.0 µg/ml
Peritoneal macrophage [24] = assay: Immunoregulatory activity in mouse Peritoneal macrophage assessed as change in total ERK expression at 25 to 100 ug/ml incubated for 1 hr by Western blotting analysis; assay type: functional, cell-based; details: dose 25-100 µg/ml
Peritoneal macrophage [25] = assay: Induction of phagocytosis in mouse Peritoneal macrophage assessed as increase in neutral red dye uptake by measuring optical density absorbance at 25 ug/ml incubated for 24 hrs followed by dye addition measured after 4 hrs by absorbance based assay (reference value: 0.089); assay type: functional; details: dose 25 µg/ml; time 28 hrs
Mus musculus [26] = assay: Antithrombotic activity in BALB/c mouse dorsal skin defect model assessed as increase in skin bleeding time at 30 mg/kg,SC administration; assay type: functional, organism-based
Escherichia coli [27] = assay: Antibacterial activity against Carbapenem-resistant Escherichia coli infected in C57BL/6 mouse with clodronate liposome-induced monocyte depletion model assessed as decrease in bacterial burden in peritoneal cavity at 10 mg/kg,ip administrated 5 hrs after bacterial infection measured after 24 hrs; assay type: functional, organism-based; details: time 19.0 hrs
Neutrophil [28] = assay: Induction of degranulation in mouse bone marrow derived neutrophil assessed as increase in MMP-9 release at 25 to 100 ug/ml incubated for 6 hrs by ELISA; assay type: functional, cell-based; details: dose 25-100 µg/ml
Staphylococcus aureus [29] = assay: Antibacterial activity against Methicillin-resistant Staphylococcus aureus infected in C57BL/6 mouse assessed as reduction in IL-6 level in peritoneal fluid at 10 mg/kg,ip administrated 5 hrs after bacterial infection measured after 24 hrs by ELISA; assay type: functional, organism-based; details: time 19.0 hrs

Q: `CC[C@H](C)[C@H](NC(=O)[C@@H]1CSSC[C@H](NC(=O)[C@H](CCC(=O)O)NC(=O)[C@@H](NC(=O)[C@H](CCCCN)NC(=O)[C@H](Cc2c[nH]cn2)NC(=O)[C@@H](NC(=O)[C@H](CCCCN)NC(=O)[C@H](CCC(=O)O)NC(=O)[C@H](C)NC(=O)[C@H](CCC(=O)O)NC(=O)[C@H](CCC(=O)O)NC(=O)[C@H](CCC(=O)O)NC(=O)[C@H](C)N)[C@@H](C)O)[C@@H](C)O)C(=O)N[C@@H](CC(C)C)C(=O)N[C@@H](CCC(=O)O)C(=O)N1)C(=O)N[C@@H](Cc1ccccc1)C(=O)N[C@H](C(=O)N[C@@H](CC(C)C)C(=O)N[C@@H](CC(C)C)C(=O)N1CCC[C@H]1C(=O)N1CCC[C@@H]1C(=O)N[C@H](C)C(=O)O)[C@@H](C)O` was tested. Which Activity (Staphylococcus aureus [1]) did it give?
A: Active

Q: And the Activity (Mus musculus [2])?
A: Active

Q: And the Activity (Peritoneal macrophage [3])?
A: inactive

Q: What about the Activity [4] of the same compound?
A: inactive

Q: And the Activity (Escherichia coli [5])?
A: Active

Q: What about the Activity (Peritoneal macrophage [6]) of the same compound?
A: Dose-Dependent Effect

Q: What about the Activity (Klebsiella pneumoniae) of the same compound?
A: inactive

Q: And the Activity [7]?
A: Active

Q: What about the Activity (Staphylococcus aureus [8]) of the same compound?
A: inactive

Q: What about the Activity (Staphylococcus aureus [9]) of the same compound?
A: Active

Q: What about the Activity [10] of the same compound?
A: inactive

Q: And the Activity (Peritoneal macrophage [11])?
A: Dose-Dependent Effect

Q: What about the Activity (Staphylococcus aureus [12]) of the same compound?
A: Active

Q: And the Activity [13]?
A: Active

Q: What about the Activity (Candida albicans) of the same compound?
A: inactive

Q: And the Activity (Lymphocyte)?
A: inactive

Q: And the Activity (Mus musculus [14])?
A: Active

Q: What about the Activity (Escherichia coli [15]) of the same compound?
A: Active

Q: What about the Activity (Staphylococcus aureus [16]) of the same compound?
A: inactive

Q: What about the Activity (Neutrophil [17]) of the same compound?
A: Dose-Dependent Effect

Q: And the Activity [18]?
A: inactive

Q: What about the Activity (Staphylococcus aureus [19]) of the same compound?
A: Active

Q: And the Activity (Escherichia coli [20])?
A: Active

Q: What about the Activity (Peritoneal macrophage [21]) of the same compound?
A: Dose-Dependent Effect

Q: What about the Activity (Peritoneal macrophage [22]) of the same compound?
A: Dose-Dependent Effect

Q: And the Activity (Escherichia coli [23])?
A: inactive

Q: What about the Activity (Peritoneal macrophage [24]) of the same compound?
A: inactive

Q: What about the OD (Peritoneal macrophage [25]) of the same compound?
A: 0.097

Q: What about the Activity (Mus musculus [26]) of the same compound?
A: inactive

Q: What about the Activity (Escherichia coli [27]) of the same compound?
A: inactive

Q: What about the Activity (Neutrophil [28]) of the same compound?
A: inactive

Q: What about the Activity (Staphylococcus aureus [29]) of the same compound?
A: Active
